The source of these data is patent US12208093B2 (THE JOHNS HOPKINS UNIVERSITY, priority 2016, dated 2025).

The subject of data set [1] is pp28-luciferase HCMV Towne. As to the kind of experiment: Add on and removal studies. It counts as cell-based, human cytomegalovirus (HCMV). The note with it: luciferase at 72 hpi. As to the method: Add on and removal studies. […] For time-of-removal studies, the medium containing the compounds was removed at 0, 6, 12, 24, 36 and 48 hpi, cells were washed three times with phosphate-buffered saline (PBS), and drug-free medium was added. Luciferase activity was determined at 72 hpi.

Data set [2] has as its target RPS14 (Homo sapiens, UniProt P62263). In words: Confocal microscopy of RPS14 localization. In kind it is cell-based. The note with it: 24 hpi; infected cells; emetine 75 nM.
Description: Confocal microscopy. […] Cells were fixed with 3.7% paraformaldehyde for 20 min at room temperature, permeabilized with ice cold methanol for 10 min at −20° C. and blocked with 5% bovine serum albumin in 0.5% Tween-20 for 20 min at room temperature. Cells were incubated with primary antibodies at 4° C. overnight, washed and incubated with fluorescently labeled secondary antibodies for 2 h at 37° C. Fluorescence microscopy was performed by using a confocal laser scanning microscope (Nikon EZ Cl confocal microscope). All images were captured at 60× magnification and processed under identical conditions with constant parameters (including scan speed and excitation and emission wavelengths) using Nikon EZ Cl software.
For data set [3], the system named is MDM2-p53. In words: Co-immunoprecipitation of MDM2 and p53; MDM2 and p53 expression. In kind it is cell-based, human. To be noted: contact-inhibited infected cells. The text has this: SDS-polyacrylamide gel electrophoresis and immunoblot analysis. Cell lysates were quantified for protein content using bicinchoninic acid (BCA) protein assay kit (Pierce Chemical, Rockford, IL). Equivalent amount of proteins were used for Western blot analysis as described previously. Protein bands were visualized by chemiluminescence using Western Blotting Luminol Reagent (Santa Cruz Biotechnology, Santa Cruz, CA). The following antibodies were used for detection of HCMV proteins: mouse anti-IE1 and IE2, (MAb810); mouse anti-UL44 (Santa Cruz biotechnology Santa Cruz, CA); mouse monoclonal anti-pp65 (Vector laboratories, Burlingame, CA); mouse monoclonal anti-β-actin antibody (Millipore, Billerica, MA); rabbit polyclonal anti-RPS14 and mouse monoclonal anti-MDM2 (AbCam, Cambridge, UK), mouse monoclonal anti-p53 (Santa Cruz, CA); horseradish peroxidase (HRP)-conjugated goat anti-rabbit IgG (Cell Signaling); and HRP-conjugated sheep anti-mouse IgG, (GE Healthcare, Waukesha, WI). For detection of co-immunoprecipitated proteins, protein A-HRP conjugate (Cell Signaling Technologies, Beverly, MA) was used as secondary antibody to eliminate the interfering IgG bands.
Co-immunoprecipitation (IP) and immunoblotting. Non-infected, infected or emetine-treated HFFs were treated with MG132 (10 μM) for 12 h. […] 1 mg of lysate was precleared with bead slurry for 30 min. The precleared lysates were incubated with anti-MDM2 (2 μg) antibody overnight. The antibody complexes were isolated using protein A/G beads (Santa Cruz), washed three times with 50% IP buffer. The immunoprecipitate—protein A/G beads were boiled in SDS sample buffer, and the supernatant was analyzed on SDS-PAGE gels after immunoblotting as described previously. […] Reverse IPs were performed by pulling down the precleared lysates with either anti-p53 antibody or anti-RPS14 antibody and detected with MDM2. […] In other experiments, transfected or treated HEK293 cell lysates were pulled-down with anti-IE2 antibody and detected with anti-MDM2 antibody and vice-versa for reverse IP.

Data set [4] deals with protein synthesis. To be noted: at concentration that inhibit CMV replication in vitro; cited from earlier work.
The test system of data set [5] is HCMV Towne. In words: HCMV Towne plaque reduction assay in HFFs. In kind it is cell-based, human cytomegalovirus (HCMV). The text has this: Cell culture, virus infection and anti-viral assays.
In general terms: Plaques are areas of infected cells; plaque reduction assays count them against a control.

Data set [6] has as its system pp28-luciferase HCMV Towne. In words: Drug combination emetine + GCV, Bliss model. In kind it is cell-based, human cytomegalovirus (HCMV). To be noted: combined with ganciclovir (GCV), dihydrochloride hydrate. As to the method: Drug combination. The combined inhibitory effect of compounds on HCMV replication was determined in infected HFFs. A dose response curve was first generated for each compound; the EC50 and slope were calculated. […] The Bliss model was used for quantification of the effect of two compounds on HCMV replication (40). In this model, drug combination represents the product of two probabilistically independent events as described in the following equation (41): […]
The combined effect of two inhibitors (FU, fractional unaffected) is computed as the product of individual effects of the two inhibitors, FU1 and FU2. If the ratio of observed fold inhibition divided by the expected fold inhibition is greater than 1, the compounds are synergistic. If the ratio is less than 1, the combination is considered antagonistic, and if it equals to 1 the combination is additive.

The test system of data set [7] is HCMV entry. In words: Virus entry immunofluorescence assay for pp65. To be noted: emetine 75 nM, GCV 10 μM, CpG 2006 10 μM; added 24 h prior to infection; dihydrochloride hydrate. In kind it is cell-based. As to the method:
Immunofluorescence. […] Compounds were diluted in serum-free medium and added to HFFs seeded on chamber slides 24 h prior to infection. After infection and treatment, cells were fixed, permeabilized, and air-dried. Cells were then incubated with mouse monoclonal anti-pp65 antibody at 37° C. in humidified chambers for 1 h, washed three times with 0.1% Tween 20 in PBS (PBST), incubated with rhodamine conjugated anti-mouse IgG (Sigma Chemical Co) at 37° C. in humidified chambers for 1 h, and washed with PBST (0.1% Tween 20). A drop of mount oil containing DAPI (4,6-diamidino-2-phenylindole) (Santa Cruz) was added to the slides before visualization with a Nikon Eclipse E-800 fluorescence microscope.

The subject of data set [8] is HCMV in RPS14 knockdown cells. It counts as cell-based, human cytomegalovirus (HCMV). To be noted: contact-inhibited RPS14 knockdown cells; luciferase first and second cycle, pp65 at 72 hpi; dihydrochloride hydrate.
Data set [9] can be described thus: in vivo. As to the method:
Pharmacokinetics and CMV inhibition in mice. […] The dosing solution was prepared in saline with a dosing volume of 10 mL/kg. Blood and tissue samples including liver, lung and spleen were collected at 0, 0.083, 0.25, 0.5, 0.75, 1, 2, 3, 4, 7, 24, 30, 48, 72 and 96 hr. […] Pharmacokinetic parameters (Cmax, Tmax, AUC and t1/2) were calculated with a non-compartmental approach using the Pharsight WinNonLin software (Ver. 6.4). The experimental procedures were approved by the Animal Care and Use Committee of Division of Veterinary Resources, NIH.

Entries after “also recorded” stand apart in the source; their conditions may differ. Structures can show the parent of a compound that is named as a salt. A value given as a limit tells only on which side of the number the result lay.

In general, Cmax refers to the highest concentration seen after dosing. As a reminder, the half-life is the time needed for the level to fall by half in the phase considered. A higher half-life goes with slow loss. Take `CC[C@H]1CN2CCc3cc(OC)c(OC)cc3[C@@H]2C[C@@H]1C[C@H]1NCCc2cc(OC)c(OC)cc21` [emetine, emetine dihydrochloride hydrate]: the “time of addition after which activity against HCMV replication is lost” value in [1] (add-on) is greater than 12 h. Besides, the “time compound is required to fully inhibit HCMV” value in [1] (removal assay) is “at least 24 h”. Also, the RPS14 localization entry in data set [2] is listed as “induced RPS14 translocation into the nucleus”. Further, in data set [3] (72 hpi), the MDM2 expression entry is “increased”. Also, the p53 expression result in data set [3] (72 hpi) is “increased”. Moreover, the “HCMV-induced interaction between MDM2 and p53” value in data set [3] (not cycling cells, MG132) is reported as “disrupted”. For the same compound, the “inhibition of protein synthesis” value in [4] is “no inhibition of protein synthesis”. The “inhibition of HCMV by plaque reduction assay” value in data set [5] was “further confirmed”. For the same compound, the “reduction in the number and size of plaques” value in data set [5] (2 million cells/plate (p<0.001) as compared to 0.5 million cells/plate, emetine 75 nM) is on record as 30 fold. Moreover, in [6], the “combined effect of emetine and GCV on virus inhibition” value is listed as “synergistic virus inhibition”. Moreover, the “inhibition of viral entry” value in data set [7] is listed as “neither emetine nor GCV inhibited viral entry; also recorded: does not inhibit”. For the same compound, in data set [8], the “HCMV inhibition in RPS14 knockdown cells” value is “unable to inhibit HCMV; also recorded: loss of HCMV inhibition”. In data set [9] (male, BALB/c, mouse, in vivo, 0.1 mg/kg), the highest level (Cmax) was 1.4 ng/mL. The half-life is 32 h in data set [9] (male, BALB/c, mouse, in vivo, ip, 0.1 mg/kg, half-life, single intraperitoneal administration 0.1 mg/kg, mice); 32 h in data set [9] (male, BALB/c, mouse, in vivo, po, 1 mg/kg, half-life, single oral administration 1 mg/kg, male BALB/c mice); 24 h in data set [9] (single oral administration 1 mg/kg, male BALB/c mice, dihydrochloride hydrate, 1 mg/kg).
